Measured values reported in patent publication US8247422B2, “Use of condensed pyrimidine derivatives for the treatment of rheumatoid arthritis” (priority 2007, dated 2012).

Key:
[1] = tested on: adjuvant-induced rheumatoid arthritis in rats; assay: Adjuvant-induced RA (AIA) model in rats; type: in vivo, Male Lewis rats; set-up: % Inhibition of swelling in each time interval relative to negative control: concentration or dose not given beside the values; details: for Mean right hind paw volume (ml water displaced): CFA treated paw, acute phase; for Mean left hind paw volume (ml water displaced): CFA untreated paw, delayed phase
Experimental: The ability of compounds of formula I to treat adjuvant-induced rheumatoid arthritis in rats was examined. The AIA model is one thought mainly to involve T cell-mediated mechanisms.
Male Lewis rats weighing 200±10 g were housed in groups of 6 with free access to food and water. 0.1 ml CFA (Mycobacterium tuberculosis 3 mg/ml) was injected into the subplantar region of the right bind paw of each rat on day 1 of the study.
Test substances were first dissolved in NaOH (if required) as explained above then suspended in 2% Tween 80 to a range of concentrations. 10 ml/kg was administered by oral gavage for 21 consecutive days, beginning (on day 1) 1 hour before injection of CFA. 2% Tween 80 was used as a negative control and methotrexate in 2% Tween 80 as a positive control.
Right hind paw volumes were measured by water displacement on day 0, 4 hours after the CFA injection on day 1, and on days 7, 14, and 21. Left hind paw volumes were measured by water displacement on days 0, 1, 7, 14, and 21. […] 30% or more reduction in paw volume relative to the negative control was considered significant anti-inflammatory activity. Body weight was also recorded on days 1, 7, 14, and 21. Symptoms of swelling in the front paws, tail, nose and ears were recorded on day 21.

[2] = in vivo; cited from earlier work
[3] = tested on: collagen-induced rheumatoid arthritis in mice
[4] = tested on: rheumatoid arthritis; details: RA patients; cited from earlier work

With `CN(Cc1cnc2nc(N)nc(N)c2n1)c1ccc(C(=O)N[C@@H](CCC(=O)O)C(=O)O)cc1` [MTX, methotrexate] the “Mean right hind paw volume (ml water displaced)” value (“Mean right hind paw volume” below) ([1]; day 0, oral gavage) was 1.06 mL, the “Mean right hind paw volume” value ([1]; day 1 (4 hours after CFA), oral gavage) was 1.56 mL and the “Mean right hind paw volume” value ([1]; day 7, oral gavage) was 1.79 mL. For the same compound, the “Mean right hind paw volume” value ([1]; day 14, oral gavage) was 1.48 mL, the “Mean right hind paw volume” value ([1]; day 21, oral gavage) was 1.37 mL and the “Mean left hind paw volume (ml water displaced)” value (“Mean left hind paw volume” below) ([1]; day 0, oral gavage) was 1.06 mL. The “Mean left hind paw volume” value ([1]; day 1, oral gavage) was 1.06 mL, the “Mean left hind paw volume” value ([1]; day 7, oral gavage) was 1.08 mL and the “Mean left hind paw volume” value ([1]; day 14, oral gavage) was 1.10 mL. For the same compound, the “Mean left hind paw volume” value ([1]; day 21, oral gavage) was 1.14 mL, the “% Inhibition of swelling in each time interval relative to negative control” value ([1]; left hind paw (CFA untreated), days 0-14) was 95% and the “% Inhibition of swelling in each time interval relative to negative control” value ([1]; left hind paw (CFA untreated), days 0-21) was 94%. For the same compound, the “% Inhibition of swelling in each time interval relative to negative control” value ([1]; right hind paw (CFA treated), days 0-1) was 15%, the “% Inhibition of swelling in each time interval relative to negative control” value ([1]; right hind paw (CFA treated), days 0-7) was 34% and the “% Inhibition of swelling in each time interval relative to negative control” value ([1]; right hind paw (CFA treated), days 0-14) was 73%. The “% Inhibition of swelling in each time interval relative to negative control” value ([1]; right hind paw (CFA treated), days 0-21) was 83%, the “fraction undergoing fast elimination unchanged after uptake” value [2] was “more than 80%” and the “therapeutic dose as percentage of maximum tolerated dose” value ([3]; mice, intraperitoneal, once daily for 6 weeks) was “twice as high”. The “signs of anaemia at the end of the study (red blood cell count, FIG. 3)” value ([3]; mouse, in vivo) was “severe signs of anaemia” and the “patients who do not respond sufficiently well to treatment with methotrexate alone” value [4] was “around 35%”.
